Source: PubChem BioAssay (NCI)
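Where inhibition never reached the appropriate level, the endpoint shown equals the highest concentration tested. Otherwise, values were interpolated linearly from a five-concentration, 48-hour dose response in 96-well plates. Abbreviation: GI50, concentration required for 50% inhibition of growth. TGI: concentration producing complete growth inhibition.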

Tests used:
Test in all cases: growth of human tumour cells (NCI), 48 h
786-0 renal = system: 786-0 renal
A498 renal = system: A498 renal
A549 NSCLC = system: A549 NSCLC
ACHN renal = system: ACHN renal
BT-549 breast = system: BT-549 breast
CAKI-1 renal = system: CAKI-1 renal
CCRF-CEM leukemia = system: CCRF-CEM leukemia
COLO 205 colon = system: COLO 205 colon
DU-145 prostate = system: DU-145 prostate
EKVX NSCLC = system: EKVX NSCLC
HCC-2998 colon = system: HCC-2998 colon
HCT-116 colon = system: HCT-116 colon
HCT-15 colon = system: HCT-15 colon
HL-60(TB) leukemia = system: HL-60(TB) leukemia
HOP-62 NSCLC = system: HOP-62 NSCLC
HOP-92 NSCLC = system: HOP-92 NSCLC
HS 578T breast = system: HS 578T breast
HT29 colon = system: HT29 colon
IGROV1 ovarian = system: IGROV1 ovarian
K-562 leukemia = system: K-562 leukemia
KM12 colon = system: KM12 colon
LOX IMVI melanoma = system: LOX IMVI melanoma
M14 melanoma = system: M14 melanoma
MALME-3M melanoma = system: MALME-3M melanoma
MCF7 breast = system: MCF7 breast
MDA-MB-231 breast = system: MDA-MB-231 breast
MDA-MB-435 = system: MDA-MB-435
MOLT-4 leukemia = system: MOLT-4 leukemia
NCI-H226 lung = system: NCI-H226 lung
NCI-H23 lung = system: NCI-H23 lung
NCI-H460 lung = system: NCI-H460 lung
NCI-H522 lung = system: NCI-H522 lung
NCI/ADR-RES ovarian = system: NCI/ADR-RES ovarian
OVCAR-3 ovarian = system: OVCAR-3 ovarian
OVCAR-4 ovarian = system: OVCAR-4 ovarian
OVCAR-5 ovarian = system: OVCAR-5 ovarian
OVCAR-8 ovarian = system: OVCAR-8 ovarian
PC-3 prostate = system: PC-3 prostate
RPMI-8226 leukemia = system: RPMI-8226 leukemia
RXF 393 renal = system: RXF 393 renal
SF-268 CNS = system: SF-268 CNS
SF-295 CNS = system: SF-295 CNS
SF-539 CNS = system: SF-539 CNS
SK-MEL-2 melanoma = system: SK-MEL-2 melanoma
SK-MEL-28 melanoma = system: SK-MEL-28 melanoma
SK-MEL-5 melanoma = system: SK-MEL-5 melanoma
SK-OV-3 ovarian = system: SK-OV-3 ovarian
SN12C renal = system: SN12C renal
SNB-19 CNS = system: SNB-19 CNS
SNB-75 CNS = system: SNB-75 CNS
SR leukemia = system: SR leukemia
SW-620 colon = system: SW-620 colon
T-47D breast = system: T-47D breast
TK-10 renal = system: TK-10 renal
U251 CNS = system: U251 CNS
UACC-257 melanoma = system: UACC-257 melanoma
UACC-62 melanoma = system: UACC-62 melanoma
UO-31 renal = system: UO-31 renal

With `CCCSc1ccc2nc(NC(=O)OC)[nH]c2c1` the GI50 (786-0 renal) was 634 nM, the TGI (786-0 renal) was over 100000 nM and the GI50 (A498 renal) was 258 nM. For the same compound, the TGI (A498 renal) was 5030 nM, the GI50 (A549 NSCLC) was 438 nM and the TGI (A549 NSCLC) was over 100000 nM. The GI50 (ACHN renal) was 2640 nM, the TGI (ACHN renal) was over 100000 nM and the GI50 (BT-549 breast) was 1500 nM. The TGI (BT-549 breast) was over 100000 nM, the TGI (CAKI-1 renal) was over 100000 nM and the GI50 (CCRF-CEM leukemia) was 276 nM. The TGI (CCRF-CEM leukemia) was over 100000 nM, the GI50 (COLO 205 colon) was 241 nM and the TGI (COLO 205 colon) was 702 nM. The GI50 (DU-145 prostate) was 336 nM, the TGI (DU-145 prostate) was over 71500 nM and the GI50 (EKVX NSCLC) was over 37000 nM. The TGI (EKVX NSCLC) was over 100000 nM, the GI50 (HCC-2998 colon) was 1010 nM and the TGI (HCC-2998 colon) was over 33800 nM. For the same compound, the GI50 (HCT-116 colon) was 416 nM, the TGI (HCT-116 colon) was over 100000 nM and the GI50 (HCT-15 colon) was 366 nM. For the same compound, the TGI (HCT-15 colon) was over 100000 nM, the GI50 (HL-60(TB) leukemia) was 228 nM and the TGI (HL-60(TB) leukemia) was 791 nM. It also gave a GI50 (HOP-62 NSCLC) of 380 nM, a TGI (HOP-62 NSCLC) of over 68700 nM and a GI50 (HOP-92 NSCLC) of 712 nM. It also gave a TGI (HOP-92 NSCLC) of over 100000 nM, a GI50 (HS 578T breast) of 378 nM and a TGI (HS 578T breast) of over 100000 nM. For the same compound, the GI50 (HT29 colon) was 235 nM, the GI50 (IGROV1 ovarian) was 1370 nM and the TGI (IGROV1 ovarian) was over 100000 nM. The GI50 (K-562 leukemia) was 76.2 nM, the TGI (K-562 leukemia) was over 100000 nM and the GI50 (KM12 colon) was 206 nM. The TGI (KM12 colon) was over 100000 nM, the GI50 (LOX IMVI melanoma) was 718 nM and the TGI (LOX IMVI melanoma) was over 100000 nM. For the same compound, the GI50 (M14 melanoma) was 260 nM, the GI50 (MALME-3M melanoma) was 425 nM and the TGI (MALME-3M melanoma) was over 100000 nM. The GI50 (MCF7 breast) was 380 nM, the TGI (MCF7 breast) was over 100000 nM and the GI50 (MDA-MB-231 breast) was 1060 nM. It also gave a TGI (MDA-MB-231 breast) of over 100000 nM, a GI50 (MDA-MB-435) of 34.8 nM and a TGI (MDA-MB-435) of 202 nM. The GI50 (MOLT-4 leukemia) was 547 nM, the TGI (MOLT-4 leukemia) was over 100000 nM and the GI50 (NCI-H226 lung) was 456 nM. The TGI (NCI-H226 lung) was 5970 nM, the GI50 (NCI-H23 lung) was 585 nM and the TGI (NCI-H23 lung) was over 100000 nM. For the same compound, the GI50 (NCI-H460 lung) was 342 nM, the TGI (NCI-H460 lung) was over 100000 nM and the GI50 (NCI-H522 lung) was 202 nM. The TGI (NCI-H522 lung) was 666 nM, the GI50 (NCI/ADR-RES ovarian) was 227 nM and the GI50 (OVCAR-3 ovarian) was 196 nM. For the same compound, the TGI (OVCAR-3 ovarian) was 509 nM, the GI50 (OVCAR-4 ovarian) was 792 nM and the TGI (OVCAR-4 ovarian) was over 100000 nM. The GI50 (OVCAR-5 ovarian) was 2080 nM, the TGI (OVCAR-5 ovarian) was over 100000 nM and the GI50 (OVCAR-8 ovarian) was 486 nM. It also gave a TGI (OVCAR-8 ovarian) of over 100000 nM, a GI50 (PC-3 prostate) of 354 nM and a TGI (PC-3 prostate) of over 100000 nM. It also gave a GI50 (RPMI-8226 leukemia) of 378 nM, a TGI (RPMI-8226 leukemia) of over 100000 nM and a GI50 (RXF 393 renal) of 208 nM. For the same compound, the TGI (RXF 393 renal) was 598 nM, the GI50 (SF-268 CNS) was 1340 nM and the TGI (SF-268 CNS) was over 100000 nM. The GI50 (SF-295 CNS) was 290 nM, the TGI (SF-295 CNS) was over 32800 nM and the GI50 (SF-539 CNS) was 323 nM. It also gave a TGI (SF-539 CNS) of over 24400 nM, a GI50 (SK-MEL-2 melanoma) of 538 nM and a TGI (SK-MEL-2 melanoma) of over 100000 nM. The GI50 (SK-MEL-28 melanoma) was 952 nM, the TGI (SK-MEL-28 melanoma) was over 100000 nM and the GI50 (SK-MEL-5 melanoma) was 290 nM. For the same compound, the TGI (SK-MEL-5 melanoma) was over 100000 nM, the GI50 (SK-OV-3 ovarian) was 285 nM and the TGI (SK-OV-3 ovarian) was 2910 nM. It also gave a GI50 (SN12C renal) of 823 nM, a TGI (SN12C renal) of over 100000 nM and a GI50 (SNB-19 CNS) of 525 nM. It also gave a TGI (SNB-19 CNS) of over 100000 nM, a GI50 (SNB-75 CNS) of 143 nM and a GI50 (SR leukemia) of 48.2 nM. For the same compound, the GI50 (SW-620 colon) was 223 nM, the TGI (SW-620 colon) was over 100000 nM and the GI50 (T-47D breast) was 298 nM. The TGI (T-47D breast) was over 100000 nM, the GI50 (TK-10 renal) was over 100000 nM and the TGI (TK-10 renal) was over 100000 nM. It also gave a GI50 (U251 CNS) of 411 nM, a TGI (U251 CNS) of over 100000 nM and a TGI (UACC-257 melanoma) of over 100000 nM. For the same compound, the GI50 (UACC-62 melanoma) was 626 nM, the TGI (UACC-62 melanoma) was over 100000 nM and the GI50 (UO-31 renal) was 890 nM. It also gave a TGI (UO-31 renal) of over 100000 nM.
